Assays:
human α4β2 nAChR subtype = biological target: T1, human α4β2 nAChR subtype (Homo sapiens, UniProt P17787+P43681); experiment: Radioligand binding, [3H]nicotine, membranes from SH-EP1/human α4β2 clonal cells; conditions: [3H]nicotine 5 nM, SH-EP1/human α4β2 cell membranes
T1 construct: expressed in transfected cells; host or cells: SH-EP1 clonal cells expressing human α4β2
Procedure: Preparation of membranes from SH-EP1/human α4β2 clonal cells: Cell pellets from 40 150 mm culture dishes were pooled, and homogenized by Polytron (Kinematica GmbH, Switzerland) in 20 milliliters of ice-cold preparative buffer. The homogenate was centrifuged at 48,000 g for 20 minutes at 4° C. The resulting pellet was re-suspended in 20 mL of ice-cold preparative buffer and stored at −20° C.
(§1) On the day of the assay, the frozen membranes were thawed and spun at 48,000×g for 20 min. The supernatant was decanted and discarded. The pellet was resuspended in Dulbecco's phosphate buffered saline (PBS, Life Technologies) pH 7.4 and homogenized with the Polytron for 6 seconds. Protein concentrations were determined using a Pierce BCA Protein Assay Kit, with bovine serum albumin as the standard (Pierce Chemical Company, Rockford, Ill.).
(§2) Membrane preparations (approximately 50 μg for human and 200-300 μg protein for rat α4β2) were incubated in PBS (50 μL and 100 μL respectively) in the presence of competitor compound (0.01 nM to 100 μM) and 5 nM [^3H]nicotine for 2-3 hours on ice. Incubation was terminated by rapid filtration on a multi-manifold tissue harvester (Brandel, Gaithersburg, Md.) using GF/B filters presoaked in 0.33% polyethyleneimine (w/v) to reduce non-specific binding. Tissue was rinsed 3 times in PBS, pH 7.4. Scintillation fluid was added to filters containing the washed tissue and allowed to equilibrate. Filters were then counted to determine radioactivity bound to the membranes by liquid scintillation counting (2200CA Tri-Carb LSC, Packard Instruments, 50% efficiency or Wallac Trilux 1450 MicroBeta, 40% efficiency, Perkin Elmer).
(§3) Data were expressed as disintegrations per minute (DPMs). Within each assay, each point had 2-3 replicates. The replicates for each point were averaged and plotted against the log of the drug concentration. IC50, which is the concentration of the compound that produces 50% inhibition of binding, was determined by least squares non-linear regression. Ki values were calculated using the Cheng-Prussof equation (1973): […]

rat α4β2 nAChR subtype [1] = biological target: T2, rat α4β2 nAChR subtype (Rattus norvegicus, UniProt P09483+P12390); experiment: Radioligand binding, [3H]nicotine, rat cortex membranes; conditions: 5 μM compound, 5 nM 3H-nicotine; Ki not determined
T2 construct: The cerebral cortex was removed and placed in 20 volumes (weight:volume) of ice-cold preparative buffer; from tissue; host or cells: rat cerebral cortex membranes (female Sprague-Dawley)

α7 nAChR subtype = biological target: T3, α7 nAChR subtype (Rattus norvegicus, UniProt Q05941); experiment: Radioligand binding, [3H]MLA, rat hippocampus membranes; conditions: for inhibition at 5 µM: read-out: α7 high through-put screening (HTS) result; for Ki: α7 Ki
T3 construct: The hippocampus was removed and placed in 10 volumes (weight:volume) of ice-cold preparative buffer; from tissue; host or cells: rat hippocampus membranes (female Sprague-Dawley)
Procedure: Rats (female, Sprague-Dawley), weighing 150-250 g, were maintained on a 12 h light/dark cycle and were allowed free access to water and food supplied by PMI Nutrition International, Inc. Animals were anesthetized with 70% CO2, then decapitated. Brains were removed and placed on an ice-cold platform. The hippocampus was removed and placed in 10 volumes (weight:volume) of ice-cold preparative buffer (137 mM NaCl, 10.7 mM KCl, 5.8 mM KH2PO4, 8 mM Na2HPO4, 20 mM HEPES (free acid), 5 mM iodoacetamide, 1.6 mM EDTA, pH 7.4); PMSF, dissolved in methanol to a final concentration of 100 μM, was added and the tissue suspension was homogenized by Polytron. The homogenate was centrifuged at 18,000×g for 20 min at 4° C. and the resulting pellet was re-suspended in 10 volumes of ice-cold water. After 60 min incubation on ice, a new pellet was collected by centrifugation at 18,000×g for 20 min at 4° C. The final pellet was re-suspended in 10 volumes of buffer and stored at −20° C. On the day of the assay, tissue was thawed, centrifuged at 18,000×g for 20 min, and then re-suspended in ice-cold PBS (Dulbecco's Phosphate Buffered Saline, 138 mM NaCl, 2.67 mM KCl, 1.47 mM KH2PO4, 8.1 mM Na2HPO4, 0.9 mM CaCl2, 0.5 mM MgCl2, Invitrogen/Gibco, pH 7.4) to a final concentration of approximately 2 mg protein/mL. Protein was determined by the method of Lowry et al., J. Biol. Chem. 193: 265 (1951), using bovine serum albumin as the standard.
The binding of [^3H]MLA was measured using a modification of the methods of Davies et al., Neuropharmacol. 38: 679 (1999). [^3H]MLA (Specific Activity=25-35 Ci/mmol) was obtained from Tocris. The binding of [^3H]MLA was determined using a 2 h incubation at 21° C. Incubations were conducted in 48-well micro-titre plates and contained about 200 μg of protein per well in a final incubation volume of 300 μL. The incubation buffer was PBS and the final concentration of [^3H]MLA was 5 nM. The binding reaction was terminated by filtration of the protein containing bound ligand onto glass fiber filters (GF/B, Brandel) using a Brandel Tissue Harvester at room temperature. Filters were soaked in de-ionized water containing 0.33% polyethyleneimine to reduce non-specific binding. Each filter was washed with PBS (3×1 mL) at room temperature. Non-specific binding was determined by inclusion of 50 μM non-radioactive MLA in selected wells.
The inhibition of [^3H]MLA binding by test compounds was determined by including seven different concentrations of the test compound in selected wells. Each concentration was replicated in triplicate. IC50 values were estimated as the concentration of compound that inhibited 50 percent of specific [^3H]MLA binding. Inhibition constants (Ki values), reported in nM, were calculated from the IC50 values using the method of Cheng et al., Biochem. Pharmacol. 22: 3099-3108 (1973).

rat α4β2 nAChR subtype [2] = biological target: T2, rat α4β2 nAChR subtype; experiment: Radioligand binding, [3H]nicotine, rat cortex membranes; conditions: [3H]nicotine 5 nM
Procedure: Preparation of Membranes from Rat Cortex: Rats (Female, Sprague-Dawley), weighing 150-250 g, were maintained on a 12 h light/dark cycle and were allowed free access to water and food supplied by PMI Nutrition International, Inc. Animals were anesthetized with 70% CO2, and then decapitated. Brains were removed and placed on an ice-cold platform. The cerebral cortex was removed and placed in 20 volumes (weight:volume) of ice-cold preparative buffer (137 mM NaCl, 10.7 mM KCl, 5.8 mM KH2PO4, 8 mM Na2HPO4, 20 mM HEPES (free acid), 5 mM iodoacetamide, 1.6 mM EDTA, pH 7.4); PMSF, dissolved in methanol to a final concentration of 100 μM, was added and the suspension was homogenized by Polytron. The homogenate was centrifuged at 18,000×g for 20 min at 4° C. and the resulting pellet was re-suspended in 20 volumes of ice-cold water. After 60 min incubation on ice, a new pellet was collected by centrifugation at 18,000×g for 20 min at 4° C. The final pellet was re-suspended in 10 volumes of buffer and stored at −20° C.
as §1, §2, §3

T2 sequence (P09483 31-630): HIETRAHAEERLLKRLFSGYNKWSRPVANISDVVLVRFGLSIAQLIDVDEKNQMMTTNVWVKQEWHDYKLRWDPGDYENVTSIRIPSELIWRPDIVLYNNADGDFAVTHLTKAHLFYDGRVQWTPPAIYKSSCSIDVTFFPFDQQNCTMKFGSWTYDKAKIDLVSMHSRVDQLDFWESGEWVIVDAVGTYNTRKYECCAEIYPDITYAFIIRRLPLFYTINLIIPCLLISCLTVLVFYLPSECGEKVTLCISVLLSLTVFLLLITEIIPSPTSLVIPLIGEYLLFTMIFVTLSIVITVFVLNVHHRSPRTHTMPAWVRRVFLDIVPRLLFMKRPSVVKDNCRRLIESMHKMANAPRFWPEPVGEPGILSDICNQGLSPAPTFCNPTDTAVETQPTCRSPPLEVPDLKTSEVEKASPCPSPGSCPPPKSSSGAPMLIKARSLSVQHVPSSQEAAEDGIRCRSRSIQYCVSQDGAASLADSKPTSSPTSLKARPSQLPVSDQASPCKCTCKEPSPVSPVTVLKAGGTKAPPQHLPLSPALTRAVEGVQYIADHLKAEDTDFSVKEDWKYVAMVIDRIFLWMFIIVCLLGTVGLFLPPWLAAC
T2 sequence (P12390 25-500): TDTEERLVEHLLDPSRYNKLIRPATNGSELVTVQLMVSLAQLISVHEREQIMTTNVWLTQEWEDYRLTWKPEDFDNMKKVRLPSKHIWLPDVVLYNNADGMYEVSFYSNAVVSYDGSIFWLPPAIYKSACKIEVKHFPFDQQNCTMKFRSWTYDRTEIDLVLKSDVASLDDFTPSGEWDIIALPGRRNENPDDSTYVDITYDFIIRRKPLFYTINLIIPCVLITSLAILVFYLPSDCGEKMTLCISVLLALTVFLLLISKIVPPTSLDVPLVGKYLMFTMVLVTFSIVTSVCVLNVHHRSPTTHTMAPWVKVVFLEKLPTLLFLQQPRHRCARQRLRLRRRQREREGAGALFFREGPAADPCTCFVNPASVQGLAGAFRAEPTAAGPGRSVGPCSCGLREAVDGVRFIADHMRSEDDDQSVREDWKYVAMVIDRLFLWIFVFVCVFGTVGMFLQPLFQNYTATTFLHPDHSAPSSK
T1 sequence (P43681 29-627 limits assumed): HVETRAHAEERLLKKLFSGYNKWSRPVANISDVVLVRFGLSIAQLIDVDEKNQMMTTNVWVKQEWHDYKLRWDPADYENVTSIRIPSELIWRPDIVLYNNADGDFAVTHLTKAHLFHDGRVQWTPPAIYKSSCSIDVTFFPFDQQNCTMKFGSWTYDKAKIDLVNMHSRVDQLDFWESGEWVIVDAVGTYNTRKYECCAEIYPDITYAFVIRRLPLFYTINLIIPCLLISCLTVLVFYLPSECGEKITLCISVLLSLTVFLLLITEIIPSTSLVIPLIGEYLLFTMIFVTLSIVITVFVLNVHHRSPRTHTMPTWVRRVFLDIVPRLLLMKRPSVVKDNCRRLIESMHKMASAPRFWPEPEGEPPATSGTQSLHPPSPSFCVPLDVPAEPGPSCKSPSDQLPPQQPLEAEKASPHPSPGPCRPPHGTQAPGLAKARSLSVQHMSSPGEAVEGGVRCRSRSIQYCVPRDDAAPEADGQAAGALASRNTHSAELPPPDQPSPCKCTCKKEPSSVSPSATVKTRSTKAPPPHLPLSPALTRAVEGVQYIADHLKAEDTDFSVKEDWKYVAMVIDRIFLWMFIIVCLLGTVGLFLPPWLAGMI
T1 sequence (P17787 26-502): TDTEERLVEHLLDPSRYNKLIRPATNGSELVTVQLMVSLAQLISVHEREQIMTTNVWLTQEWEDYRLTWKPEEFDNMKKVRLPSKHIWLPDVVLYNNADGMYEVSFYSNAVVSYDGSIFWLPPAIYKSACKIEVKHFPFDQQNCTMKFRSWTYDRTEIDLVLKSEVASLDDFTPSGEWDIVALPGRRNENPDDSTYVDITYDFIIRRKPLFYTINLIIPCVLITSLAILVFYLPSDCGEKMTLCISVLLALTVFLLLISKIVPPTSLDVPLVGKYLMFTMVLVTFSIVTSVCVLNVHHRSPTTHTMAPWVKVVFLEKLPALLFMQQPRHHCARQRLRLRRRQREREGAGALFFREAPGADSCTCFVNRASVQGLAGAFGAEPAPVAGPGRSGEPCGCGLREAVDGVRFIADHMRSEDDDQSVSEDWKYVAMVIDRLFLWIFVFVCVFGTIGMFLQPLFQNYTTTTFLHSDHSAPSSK
T3 sequence (Q05941 23-502): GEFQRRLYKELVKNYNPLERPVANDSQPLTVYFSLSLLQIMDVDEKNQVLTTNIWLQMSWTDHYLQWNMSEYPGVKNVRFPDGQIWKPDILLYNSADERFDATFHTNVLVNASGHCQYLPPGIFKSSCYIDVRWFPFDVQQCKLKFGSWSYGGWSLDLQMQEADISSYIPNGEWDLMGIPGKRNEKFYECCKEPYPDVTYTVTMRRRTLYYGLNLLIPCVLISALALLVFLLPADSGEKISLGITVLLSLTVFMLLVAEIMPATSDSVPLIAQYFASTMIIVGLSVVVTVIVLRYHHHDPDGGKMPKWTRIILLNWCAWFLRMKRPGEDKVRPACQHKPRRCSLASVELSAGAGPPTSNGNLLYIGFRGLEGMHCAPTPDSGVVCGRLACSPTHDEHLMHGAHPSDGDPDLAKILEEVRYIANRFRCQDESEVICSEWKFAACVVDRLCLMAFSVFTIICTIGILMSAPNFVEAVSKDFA

Row | SMILES | Ki (human α4β2 nAChR subtype) [nM] | Rat α4β2 high through-put screening (HTS) result (rat α4β2 nAChR subtype [1]) | inhibition at 5 µM (α7 nAChR subtype) [%] | Ki (rat α4β2 nAChR subtype [2]) [nM] | Ki (α7 nAChR subtype) [nM]
1 | COC(C(=O)N1CC2CNCC(C2)C1)c1ccccc1 (stereo not drawn) [Example 10-65] | 386 | ND; failed HTS (the compound failed to inhibit, at 5 μM concentration, the binding of 5 nM ^3H-nicotine by at least 50%) | < 50 | – | –
2 | CC1(C)CC(C(=O)N2CC3CNCC3C2)C1 (stereo not drawn) [Example 10-50] | 129 | ND; failed HTS (the compound failed to inhibit, at 5 μM concentration, the binding of 5 nM ^3H-nicotine by at least 50%) | < 50 | – | –
3 | O=C(Cc1cccnc1)N1CC2CNCC2C1 (stereo not drawn) [Example 10-6] | 489 | ND; failed HTS (the compound failed to inhibit, at 5 μM concentration, the binding of 5 nM ^3H-nicotine by at least 50%) | < 50 | – | –
4 | O=C(C(O)c1ccccc1)N1CC2CNCC(C2)C1 (stereo not drawn) [Example 10-64] | 1530 | ND; failed HTS (the compound failed to inhibit, at 5 μM concentration, the binding of 5 nM ^3H-nicotine by at least 50%) | < 50 | – | –
5 | CC(C)(F)C(=O)N1CC2CNCC(C2)C1 [Example 10-91] | 139 | – | < 50 | 342 | –
6 | C=CCC(=O)N1CC2CNCC2C1 (stereo not drawn) [Example 10-5] | 140 | – | < 50 | 22.5 | –
7 | CC(=O)N1CC2CNCC2C1 (stereo not drawn) [Example 10-1] | 38.5 | – | < 50 | 20.5 | –
8 | O=C(C1CC2CCC1C2)N1CC2CNCC(C2)C1 (stereo not drawn) [Example 10-93] | 35.3 | – | < 50 | 49.7 | –
9 | O=C([C@H]1C[C@@H]1F)N1CC2CNCC2C1 (stereo partly drawn) [Example 10-36] | 17.2 | – | – | 34.3 | 25300
10 | O=C(CCF)N1CC2CNCC2C1 (stereo not drawn) [Example 10-30] | 14.8 | – | < 50 | 22.4 | –
11 | O=C(C1CC(F)C1)N1CC2CNCC2C1 (stereo not drawn) [Example 10-33] | 18 | – | < 50 | 7.2 | –
12 | CC(C)(C)C(=O)N1CC2CNCC2C1 (stereo not drawn) [Example 10-32] | 8.1 | – | < 50 | 15.8 | –
13 | COCCC(=O)N1CC2CNCC2C1 (stereo not drawn) [Example 10-13] | 220 | – | < 50 | 305 | –
14 | O=C([C@H]1C[C@@H]1F)N1CC2CNCC2C1 (stereo partly drawn) [Example 10-29] | 5.9 | – | < 50 | 21.3 | –
15 | O=C(C1CC1(F)F)N1CC2CNCC2C1 (stereo not drawn) [Example 10-18] | 2.1 | – | < 50 | 6.2 | –
16 | CC1(C(=O)N2CC3CNCC(C3)C2)CC1 [Example 10-70] | 214 | – | < 50 | 874 | –

Row | SMILES | Ki (human α4β2 nAChR subtype) [nM] | Rat α4β2 high through-put screening (HTS) result (rat α4β2 nAChR subtype [1]) | inhibition at 5 µM (α7 nAChR subtype) [%] | Ki (rat α4β2 nAChR subtype [2]) [nM] | Ki (α7 nAChR subtype) [nM]
17 | O=C([C@H]1C[C@H]1F)N1CC2CNCC2C1 (stereo partly drawn) [Example 10-28] | 2.9 | – | < 50 | 10 | –
18 | O=C(N1CC2CNCC2C1)C1(O)CC1 (stereo not drawn) [Example 10-22] | 343 | – | < 50 | 445 | –
19 | O=C([C@@H]1C[C@@H]1F)N1CC2CNCC(C2)C1 [Example 10-89] | 1 | – | – | 0.8 | 73.4
20 | CC(C)=CC(=O)N1CC2CNCC2C1 (stereo not drawn) [Example 10-10] | 79.7 | – | < 50 | 54.2 | –
21 | O=C(N1CC2CNCC2C1)C1(C(F)(F)F)CC1 (stereo not drawn) [Example 10-17] | 303 | – | < 50 | 419 | –
22 | CS(=O)(=O)CC(=O)N1CC2CNCC2C1 (stereo not drawn) [Example 10-35] | 345 | – | < 50 | 238 | –
23 | O=C(CC1CC1)N1CC2CNCC(C2)C1 [Example 10-83] | 33.9 | – | < 50 | 13.3 | –
24 | COCCC(=O)N1CC2CNCC(C2)C1 [Example 10-62] | 127 | – | < 50 | 175 | –
25 | O=C(C1C[C@H]2C=C[C@@H]1CC2)N1CC2CNCC(C2)C1 (stereo partly drawn) [Example 10-100] | 72.4 | – | < 50 | 256 | –
26 | O=C([C@H]1C[C@H]1F)N1CC2CNCC(C2)C1 [Example 10-92] | 7.3 | – | – | 15.9 | 360
27 | CC(F)(F)C(=O)N1CC2CNCC2C1 (stereo not drawn) [Example 10-40] | 9.8 | – | < 50 | 8.6 | –
28 | O=C(C1CC=CCC1)N1CC2CNCC2C1 (stereo not drawn) [Example 10-49] | 133 | – | < 50 | 236 | –
29 | O=C(C1CC2C=CC1C2)N1CC2CNCC(C2)C1 (stereo not drawn) [Example 10-94] | 12.6 | – | < 50 | 22.7 | –
30 | C/C=C/CC(=O)N1CC2CNCC(C2)C1 [Example 10-66] | 16.7 | – | < 50 | 30.1 | –
31 | CS(=O)(=O)CC(=O)N1CC2CNCC(C2)C1 [Example 10-85] | 131 | – | < 50 | 190 | –
32 | O=C(C1C[C@H]2C=C[C@@H]1CC2)N1CC2CNCC2C1 (stereo partly drawn) [Example 10-46] | 44.5 | – | < 50 | 236 | –

Reference: patent US20110071180A1, “SUB-TYPE SELECTIVE AMIDES OF DIAZABICYCLOALKANES” (Targacept, Inc., priority 2008, published 2011)
